Columns and labels:
[1] = tested on: recombinant human eEF-2 kinase; assay: eEF-2 kinase activity assay: phosphorylation of rabbit reticulocyte eEF-2 with [γ-32P]ATP, SDS/PAGE and autoradiography; format: biochemical; conditions: kinase expressed in coupled transcription/translation system, assayed without further purification; 20 μM antagonist is printed in the FIG. 3 legend for panel C
Description: FIG. 3. Activity of recombinant eEF-2 kinase in vitro. A large scale (0.5 ml) reaction using a mixture of Cefk-1 and Cefk-2 plasmids was run as in FIG. 2, with the omission of labeled methionine. In the control experiment, the reaction was run with a plasmid containing a luciferase gene. (A) The reaction mixtures were separated by chromatography on a Mono Q column as described. (B) eEF-2 kinase activity in fractions was measured as the ability to phosphorylate purified rabbit eEF-2 in the presence of [γ-^32 P]ATP. Purified rabbit reticulocyte eEF-2 kinase was used in the (+) control experiments. (C) Ca^2+/calmodulin-dependency of recombinant C. elegans eEF-2 kinase. Mono Q fraction 25 was assayed in a standard eEF-2 kinase assay in the presence and absence of Ca^2+ and calmodulin and 20 μM trifluoperazine (TFP) or N-(6 aminohexyl)-5-chloro-1-napthalene-sulfonamide (W7). (D) Ca^2+/calmodulin-dependency of recombinant human eEF-2 kinase. […]
To assay for eEF-2 kinase activity, 5 μl from each fraction was added to a reaction mixture (40 μl) containing 50 mM Hepes-KOH (ph. 7.4) 10 mM magnesium acetate, 0.1 mM CaCl2, 5 mM dithiothreitol, 50 μM ATP, 2 μCi [γ-^32P]ATP, 0.6 μg calmodulin, and 0.5 μg rabbit reticulocyte eEF-2. […] Phosphoproteins were analyzed by autoradiography. […]

[2] = target: T1, recombinant eEF-2 kinase (Homo sapiens, UniProt O00418); assay: eEF-2 kinase activity assay using a 16-amino acid peptide derived from myosin heavy chain as the phosphorylation target; format: biochemical; conditions: [γ-33P]ATP, 30° C., phosphocellulose paper, scintillation counting
T1 construct: one of GST (pGEX-2T), 6xHis (pRSET A) or thioredoxin (pThioHisB); made in house; host or cells: Escherichia coli BL21(DE3)
Description: FIG. 8. Assay for eEF-2 kinase activity. Recombinant eEF-2 kinase (2 μg) was incubated with increasing concentrations of a peptide phosphorylation target (RKKGESEKTKTKEFL) in a buffer consisting of 12.5 mM Hepes-KOH (pH 7.4), 2.5 mM magnesium acetate, 1.25 mM DTT, 25 μM CaCl2, 0.5 μg calmodulin, 100 μM ATP, and 0.5 μCi [γ-^33P]ATP in a total volume of 50 μl. Samples were incubated at 30° C. and aliquots were withdrawn at various time points, and the reaction was terminated by incubation in an ice water bath. The aliquots were then spotted onto phosphocellulose paper (2 cm×2 cm) and washed (4×4 min) with 75 mM phosphoric acid. The papers were then rinsed with 100% ethanol, dried, and then counted in a scintillation counter.
Human eEF-2 kinase cDNA was cloned into three different expression vectors: pGEX-2T (Pharmacia Biotech, Piscataway, N.J.); pRSET A (Invitrogen, Sorrento Valley, Calif.); and, pThioHisB (Invitrogen). After transformation into Escherichia coli strain BL21(DE3), transformants were cultured in LB broth containing 50 μg/ml ampicillin. When the cultured reached an A600 value of 0.7, isopropyl-β-thiogalactopyranoside (IPTG) was added to the bacterial cultures to a final concentration of […] to induce expression. […] The refolded protein was analyzed by SDS-PAGE and assayed for the ability to phosphorylate eEF-2. […]

Compound: NCCCCCCNS(=O)(=O)c1cccc2c(Cl)cccc12 [N-(6-aminohexyl)-5-chloro-1-napthalene-sulfonamide]
- inhibition of recombinant human eEF-2 kinase activity by calmodulin antagonists [1]: completely inhibited

Compound: CN1CCN(CCCN2c3ccccc3Sc3ccc(C(F)(F)F)cc32)CC1 [trifluoperazine]
- inhibition of recombinant human eEF-2 kinase activity by calmodulin antagonists [1]: completely inhibited

Compound: RKKFGESEKTKTKEFL [16-mer peptide based on the phosphorylation site of Dictyostelium discoideum MHC, substrate for eEF-2 kinase]
- ability to serve as substrate (phosphoacceptor) for eEF-2 kinase [2]: good substrate
